Reference: BindingDB's records for patent US20240254114 (Merck Sharp & Dohme, 2024)

Molecular target: T1, Diacylglycerol O-acyltransferase 2 (Homo sapiens, UniProt Q96PD7)
T1 sequence (Q96PD7 whole entry): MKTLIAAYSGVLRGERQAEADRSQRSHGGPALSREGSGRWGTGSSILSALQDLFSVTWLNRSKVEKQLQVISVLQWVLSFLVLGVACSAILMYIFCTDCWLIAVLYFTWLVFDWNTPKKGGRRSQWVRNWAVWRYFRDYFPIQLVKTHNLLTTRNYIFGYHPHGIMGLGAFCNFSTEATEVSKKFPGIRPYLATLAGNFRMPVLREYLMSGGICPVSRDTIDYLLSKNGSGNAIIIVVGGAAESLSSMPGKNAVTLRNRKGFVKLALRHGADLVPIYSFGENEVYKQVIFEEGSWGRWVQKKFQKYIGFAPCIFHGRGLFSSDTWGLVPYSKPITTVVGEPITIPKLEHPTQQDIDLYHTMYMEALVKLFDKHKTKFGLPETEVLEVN
Test: DGAT2 Enzymatic Activity Assay
Method: DGAT2 activity was determined by measuring the amount of enzymatic product 13C18-triolein (13C-1,2,3-Tri(cis-9-octadecenoyl)glycerol) using the membrane prep mentioned above. The assay was carried out in ABgene 384-well assay plates in a final volume of 25 uL at rt.

For `O=C(NC1CN(C(=O)C(F)(F)F)C1)c1nc2ccc(Oc3ncc(Cl)cc3OCC(F)(F)F)cc2o1` [US20240254114, Example 8], the IC50 was 1010 nM.
